Where two headings read alike, the source gives them in different places. Starred links: 1 amine or outer side, 2 acyl side, 3 side chain; linkers in the order of their positions; H or OH if unused. Positions of bridges follow the written chain, without caps; N, C: chain ends. Non-standard residues stand in square brackets, D forms with d. Residues, ends and D or L forms follow the SMILES beside them. Groups on a side chain read outwards from the residue. Chains are numbered I, II in the order given. *: point of attachment. X6 = CN1/C(=C/C=C/C=C/C2=[N+](CCCCCC(=O)*)c3ccc(S(=O)(=O)[O-])cc3C2(C)C)C(C)(C)c2cc(S(=O)(=O)O)ccc21; X2 = OC[C@H]1O[C@@H](O[C@H]2[C@H](O)[C@@H](O)[C@H](*)O[C@@H]2CO)[C@H](O)[C@@H](O)[C@H]1O; X7 = O=C(O)CN1CCN(CC(=O)O)CCN([C@H](CCC(=O)*)C(=O)O)CCN(CC(=O)O)CC1; Benzoyl(4-SiFtBu2) = CC(C)(C)[Si](F)(c1ccc(C(=O)*)cc1)C(C)(C)C; X5 = CC(C)(C)[Si](F)(c1ccc(C[N+](C)(C)CC(=O)*)cc1)C(C)(C)C; DOTA = O=C(O)CN1CCN(CC(=O)O)CCN(CC(=O)*)CCN(CC(=O)O)CC1; d(γGlu) = O=C(O)[C@@H](CCC(=O)[*:2])N[*:1]; Tyr(3-I) = N[C@@H](Cc1ccc(O)c(I)c1)C(=O)O; 2Nal = N[C@@H](Cc1ccc2ccccc2c1)C(=O)O; d2Nal = N[C@H](Cc1ccc2ccccc2c1)C(=O)O; dNMeOrn = CN[C@H](CCCN)C(=O)O; d(hCys) = N[C@H](CCS)C(=O)O; 4Amb = NCc1ccc(C(=O)O)cc1; 4Abz = Nc1ccc(C(=O)O)cc1; dDap = NC[C@@H](N)C(=O)O; CO = O=C([*:1])[*:2]; Ahx = NCCCCCC(=O)O
Key:
[1] = tested on: CXCR4-expressing Chem_1 cells; assay: Determination of internalization, dual tracer with 125I-Fc-131; type: cell-based; conditions: for Cell-bound [%] / Internalized [%]: of total cellular activity
Protocol: CXCR4-expressing Chem_1 cells were grown in DMEM-F12 medium supplemented with 10 vol % FBS, 1 vol % NEA, 1 vol % PenStrep and 1 vol % HEPES (1.00 M). Cells were maintained in a 5% CO2 atmosphere at 37° C.
For in vitro experiments, cells were harvested by removal of the medium and incubation of the cells with trypsine/EDTA (0.05%/0.02%; w/v) for 30 in at 37° C.
Each well (n=3 for every time point) was either treated with 25 μL DMEM-F12 (+5 wt % BSA) or 25 μL of an AMD3100 stock (1 mM in H2O) for blockage of the receptors.
The experiment was stopped by placing the well-plate on ice and removing the supernatant. The cells were washed with 250 μL cold HBSS and the both fractions for each well combined, comprising the amount of unbound radioligand.
The supernatant was removed, the cells washed with cold HBSS and the respective fractions combined to obtain the amount of surface-bound radioligand.
The cells were then incubated with 300 μL NaOH (1.00 M in H2O) for at least 30 at r.t. before the supernatant was removed. The well was washed with another 300 μL NaOH and the fractions combined that contain the amount of internalized radioligand.
The three different fractions were subjected to activity measurement in the γ-counter, measuring the activity of the radionuclide used for the labeling of the peptide under investigation first. […] Data was corrected for non-specific internalization and referred to the specific internalization of the standard ligand

[2] = Octanol/PBS partition coefficient (logD7.4); type: physicochemical; conditions: n-octanol/PBS pH 7.4, radiolabeled compound
Protocol: The tubes were vortexed at maximum speed for 3 min to ensure equilibrium before centrifugation at 15.000×g for 5 min on a Biofuge 15 from Heraeus Holding GmbH (Osterode, Germany). An aliquot of 100 μL of each fraction was measured in the γ-counter and the log D7.4 calculated as follows: […]

CXCR4 = CXCR4 (Homo sapiens, UniProt P61073); assay: Determination of IC50: competition with 125I-Fc-131 on CXCR4-positive Jurkat cells; type: binding; design: CXCR4-positive Jurkat T lymphocyte cells were grown in Gibco's RPMI 1640 GlutaMAX medium; endogenous in cells; host or cells: Jurkat T lymphocyte cells (whole cells in suspension, 400.000 per tube);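 further: test compound at 10^−5 to 10^−11 M competed for 2 h at 8 °C with the radioligand on 400,000 cells per well, bound versus free activity measured by γ-counting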
[3] = Biodistribution in Jurkat tumor-bearing CB-17 SCID mice; type: in vivo; conditions: female, CB-17 SCID, mouse, in vivo, iv, total radioactivity, 1 h p.i., Jurkat xenograft, CB-17 SCID female mice
Protocol: All animal experiments were conducted in accordance with general animal welfare regulations in Germany and the institutional guidelines for the care and use of animals. To establish tumor xenografts, Jurkat cells (2-3×10^7 cells) were suspended in a mixture of Gibco's RPMI 1640 medium and Matrigel (1/1; v/v) from BD Biosciences (Heidelberg, Germany), and inoculated subcutaneously onto the right shoulder of 6-10 weeks old CB17-SCID mice from either Charles River GmbH (Sulzfeld, Germany) or the in-house mouse breeding facility. Mice were used when tumors had grown to a diameter of 5-8 mm (4-10 weeks after inoculation).
Approximately 0.5-20 MBq (0.02-0.20 nmol) of the ^125I-, ^177Lu-, ^99mTc-, ^18F- or ^68Ga-labeled ligand were injected into the tail vein of Jurkat tumor-bearing CB-17 SCID mice and the animals sacrificed after the respective biodistribution time. Selected organs were removed, weighted and measured in a γ-counter.

[4] = unlabeled or cold (natGa/natLu) compound vs 125I-Fc-131, Jurkat cells

Chain of CXCR4 (P61073 whole entry): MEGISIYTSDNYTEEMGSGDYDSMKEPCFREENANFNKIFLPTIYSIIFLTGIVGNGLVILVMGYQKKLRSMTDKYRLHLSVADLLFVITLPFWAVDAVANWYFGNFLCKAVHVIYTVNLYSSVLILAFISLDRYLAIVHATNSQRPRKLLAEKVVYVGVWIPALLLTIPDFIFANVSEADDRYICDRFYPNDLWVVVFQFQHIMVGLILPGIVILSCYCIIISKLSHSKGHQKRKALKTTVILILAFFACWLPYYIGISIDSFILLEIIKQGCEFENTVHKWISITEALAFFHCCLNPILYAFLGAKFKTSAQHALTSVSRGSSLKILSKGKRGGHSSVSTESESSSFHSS

C[C@@H](NC(=O)[C@@H](CCCNC(=N)N)NC(=O)[C@@H](CN)NC(=O)CN1CCN(CC(=O)O)CCN(CC(=O)O)CCN(CC(=O)O)CC1)C(=O)NCc1ccc(C(=O)NCCC[C@@H]2C(=O)N[C@@H](CCCNC(=N)N)C(=O)N[C@@H](Cc3ccc4ccccc4c3)C(=O)NCC(=O)N[C@H](Cc3ccc(O)cc3)C(=O)N2C)cc1 [CXCR4-DOTA-1 [Lu]] (cyclo([dY][dNMeOrn]([4Amb-dA-dR-dDap-DOTA])R[2Nal]G))
Internalized in relation to 125I-Fc-131 [%] ([1]; 15 min): 78.3 ± 6.93%
Cell-bound [%] ([1]; 15 min): 4.27 ± 0.38%
Internalized [%] ([1]; 15 min): 2.61 ± 0.20%
Internalized in relation to 125I-Fc-131 [%] ([1]; 30 min): 95.0 ± 9.39%
Cell-bound [%] ([1]; 30 min): 4.43 ± 0.08%
Internalized [%] ([1]; 30 min): 3.28 ± 0.27%
Internalized in relation to 125I-Fc-131 [%] ([1]; 60 min): 109 ± 24.6%
Cell-bound [%] ([1]; 60 min): 6.02 ± 0.67%
Internalized [%] ([1]; 60 min): 5.04 ± 0.92%
Internalized in relation to 125I-Fc-131 [%] ([1]; 120 min): 133 ± 7.31%
Internalization [% Fc-131] 2 h ([1]; 2 h, 177Lu-labeled): 133 % Fc-131
Cell-bound [%] ([1]; 120 min): 4.97 ± 0.31%
Internalized [%] ([1]; 120 min): 7.08 ± 0.22%
logD7.4 [2]: −3.41 ± 0.05 (6)
IC50 (CXCR4; unlabeled or cold (natGa/natLu) compound vs 125I-Fc-131, Jurkat cells, read-out: IC50): 5.05 ± 1.75 nM

CC[C@H](C)[C@@H]([C@@H](CC(=O)N1CCC[C@H]1[C@H](OC)[C@@H](C)C(=O)N[C@H](C)[C@@H](O)c1ccccc1)OC)N(C)C(=O)[C@@H](NC(=O)[C@H](C(C)C)N(C)C(=O)OCc1ccc(NC(=O)[C@H](CCCNC(N)=O)NC(=O)[C@@H](NC(=O)CCCCCN2C(=O)CC(SCC[C@@H](N)C(=O)N[C@H](Cc3c[nH]cn3)C(=O)N[C@H](CCCNC(=N)N)C(=O)N[C@H](C)C(=O)Nc3ccc(C(=O)NCCC[C@@H]4C(=O)N[C@@H](CCCNC(=N)N)C(=O)N[C@@H](Cc5ccc6ccccc6c5)C(=O)NCC(=O)N[C@H](Cc5ccc(O)cc5)C(=O)N4C)cc3)C2=O)C(C)C)cc1)C(C)C (stereo partly drawn) [CXCR4-MMAE-3]
Internalization 2 h [% of bound peptide] ([1]; 2 h, 125I-labeled): 24.9 ± 0.85 % of bound peptide
logD7.4 [2]: 0.80 ± 0.12 (6)
IC50 (CXCR4): 43.9 ± 6.18 nM

C[C@@H](NC(=O)[C@@H](CCCNC(=N)N)NC(=O)[C@@H](CN)NC(=O)CCCCC[N+]1=C(/C=C/C=C/C=C2/N(C)c3ccc(S(=O)(=O)O)cc3C2(C)C)C(C)(C)c2cc(S(=O)(=O)[O-])ccc21)C(=O)Nc1ccc(C(=O)NCCC[C@@H]2C(=O)N[C@@H](CCCNC(=N)N)C(=O)N[C@H](Cc3ccc4ccccc4c3)C(=O)NCC(=O)N[C@@H](Cc3ccc(O)c(I)c3)C(=O)N2C)cc1 [CXCR4-OI-2] (cyclo([Tyr(3-I)][dNMeOrn]([4Abz-dA-dR-dDap-X6])R[d2Nal]G))
logD7.4 [2]: −1.83 ± 0.02 (5)
tissue uptake at 1 h ([3]; Blood, read-out: % iD/g Blood): 1.73 %ID/g
tissue uptake at 1 h ([3]; Bone, read-out: % iD/g Bone): 1.2 %ID/g
tissue uptake at 1 h ([3]; Heart, read-out: % iD/g Heart): 1.84 %ID/g
tissue uptake at 1 h ([3]; Intestine, read-out: % iD/g Intestine): 1.88 %ID/g
tissue uptake at 1 h ([3]; Kidney, read-out: % iD/g Kidney): 13.9 %ID/g
tissue uptake at 1 h ([3]; Liver, read-out: % iD/g Liver): 35.3 %ID/g
tissue uptake at 1 h ([3]; Lung, read-out: % iD/g Lung): 5.54 %ID/g
tissue uptake at 1 h ([3]; Muscle, read-out: % iD/g Muscle): 0.41 %ID/g
tissue uptake at 1 h ([3]; Pancreas, read-out: % iD/g Pancreas): 1.1 %ID/g
tissue uptake at 1 h ([3]; Spleen, read-out: % iD/g Spleen): 16.1 %ID/g
tissue uptake at 1 h ([3]; Stomach, read-out: % iD/g Stomach): 4.01 %ID/g
tissue uptake at 1 h ([3]; Thyroid, read-out: % iD/g Thyroid): 1.46 %ID/g
tissue uptake at 1 h ([3]; Tumor, read-out: % iD/g Tumor): 1.1 %ID/g
IC50 (CXCR4; [4]): 10.2 ± 3.95 nM

C[C@@H](NC(=O)[C@@H](CCCNC(=N)N)NC(=O)[C@@H](CN)NC(=O)CCCCCNC(=O)[C@@H](CNC(=O)CC[C@H](C(=O)O)N1CCN(CC(=O)O)CCN(CC(=O)O)CCN(CC(=O)O)CC1)NC(=O)[C@@H](CNC(=O)c1ccc([Si](F)(C(C)(C)C)C(C)(C)C)cc1)NC(=O)CC[C@@H](NC(=O)N[C@H](CCC(=O)O)C(=O)O)C(=O)O)C(=O)Nc1ccc(C(=O)NCCC[C@@H]2C(=O)N[C@@H](CCCNC(=N)N)C(=O)N[C@@H](Cc3ccc4ccccc4c3)C(=O)NCC(=O)N[C@H](Cc3ccc(O)cc3)C(=O)N2C)cc1 [CXCR4-SiFA-5 [Lu]] (I: {dE-CO-d(γGlu)}-[dDap](Benzoyl(4-SiFtBu2))[dDap](X7)[Ahx][dDap][dR][dA][4Abz] / II: cyclo([dY][dNMeOrn]R[2Nal]G); amide I:C-II:2)
logD7.4 [2]: −1.73 ± 0.05 (6)
IC50 (CXCR4; [4]): 45.8 ± 17.4 nM

C[C@@H](NC(=O)[C@@H](CCCNC(=N)N)NC(=O)[C@@H](CN)NC(=O)CCCCCNC(=O)[C@@H](CNC(=O)CC[C@H](C(=O)O)N1CCN(CC(=O)O)CCN(CC(=O)O)CCN(CC(=O)O)CC1)NC(=O)C[N+](C)(C)Cc1ccc([Si](F)(C(C)(C)C)C(C)(C)C)cc1)C(=O)Nc1ccc(C(=O)NCCC[C@@H]2C(=O)N[C@@H](CCCNC(=N)N)C(=O)N[C@@H](Cc3ccc4ccccc4c3)C(=O)NCC(=O)N[C@H](Cc3ccc(O)cc3)C(=O)N2C)cc1 [CXCR4-SiFA-6 [Lu]]
logD7.4 [2]: −0.85 ± 0.04 (6)
IC50 (CXCR4; [4]): 8.29 ± 3.11 nM

C[C@@H](NC(=O)[C@@H](CCCNC(=N)N)NC(=O)[C@@H](CN)NC(=O)CCCCCNC(=O)[C@@H](CNC(=O)CN1CCN(CC(=O)O)CCN(CC(=O)O)CCN(CC(=O)O)CC1)NC(=O)[C@@H](CCS[C@@H]1O[C@H](CO)[C@@H](O[C@@H]2O[C@H](CO)[C@H](O)[C@H](O)[C@H]2O)[C@H](O)[C@H]1O)NC(=O)C[N+](C)(C)Cc1ccc([Si](F)(C(C)(C)C)C(C)(C)C)cc1)C(=O)Nc1ccc(C(=O)NCCC[C@@H]2C(=O)N[C@@H](CCCNC(=N)N)C(=O)N[C@@H](Cc3ccc4ccccc4c3)C(=O)NCC(=O)N[C@H](Cc3ccc(O)cc3)C(=O)N2C)cc1 [CXCR4-SiFA-7 [Lu]] (I: X5-[d(hCys)](X2)[dDap](DOTA)[Ahx][dDap][dR][dA][4Abz] / II: cyclo([dY][dNMeOrn]R[2Nal]G); amide I:C-II:2)
logD7.4 [2]: −2.23 ± 0.11 (7)
IC50 (CXCR4; [4]): 6.05 ± 1.17 nM
